These results are taken from patent US20190284136A1, “INDOLINE DERIVATIVES” (ViiV HEALTHCARE UK LIMITED, priority 2016, published 2019).

By IC50 is commonly meant the concentration that inhibits the measured activity by half.

For this experiment, the system named is HIV. The experiment in a line: Table 1 IC50 of the examples (assay method not given; patent concerns inhibiting HIV replication). It is filed as cell-based. The conditions noted are these: Human immunodeficiency virus 1.
`Cc1cc2c(c(-c3cc(F)c4c(c3C)CCCO4)c1[C@H](OC(C)(C)C)C(=O)O)CCN2C(=O)c1cccc(F)c1C` (atropisomer, axis not shown) [Example 96, (S)-2-(tert-Butoxy)-2-((R)-1-(3-fluoro-2-methylbenzoyl)-4-(8-fluoro-5-methylchroman-6-yl)-6-methylindolin-5-yl)acetic acid]: the IC50 turned out to be 4 nM.

`Cc1cc(F)cc(C(=O)N2CCc3c2cc(C)c([C@H](OC(C)(C)C)C(=O)O)c3-c2cc(F)c3c(c2C)CCCO3)c1` (atropisomer, axis not shown) [Example 97, (S)-2-(tert-Butoxy)-2-((R)-1-(3-fluoro-5-methylbenzoyl)-4-(8-fluoro-5-methylchroman-6-yl)-6-methylindolin-5-yl)acetic acid] gave an IC50 of 6 nM.

`Cc1cc2c(c(-c3cc(F)c4c(c3C)CCCO4)c1[C@H](OC(C)(C)C)C(=O)O)CCN2C(=O)c1ccccc1Cl` (atropisomer, axis not shown) [Example 98, (S)-2-(tert-Butoxy)-2-((R)-1-(2-chlorobenzoyl)-4-(8-fluoro-5-methylchroman-6-yl)-6-methylindolin-5-yl)acetic acid] came in with an IC50 of 2 nM.

`COc1ccc(C)cc1C(=O)N1CCc2c1cc(C)c([C@H](OC(C)(C)C)C(=O)O)c2-c1cc(F)c2c(c1C)CCCO2` (atropisomer, axis not shown) [Example 99, (S)-2-(tert-Butoxy)-2-((R)-4-(8-fluoro-5-methylchroman-6-yl)-1-(2-methoxy-5-methylbenzoyl)-6-methylindolin-5-yl)acetic acid] displayed an IC50 of 4 nM.

`Cc1cc2c(c(-c3cc(F)c4c(c3C)CCCO4)c1[C@H](OC(C)(C)C)C(=O)O)CCN2C(=O)c1cccc2c1OCC2` (atropisomer, axis not shown) [Example 100, (S)-2-(tert-Butoxy)-2-((R)-1-(2,3-dihydrobenzofuran-7-carbonyl)-4-(8-fluoro-5-methylchroman-6-yl)-6-methylindolin-5-yl)acetic acid]: inhibition was half-maximal at 5 nM (IC50).

Turning to `COc1ccc(F)cc1C(=O)N1CCc2c1cc(C)c([C@H](OC(C)(C)C)C(=O)O)c2-c1cc(F)c2c(c1C)CCCO2` (atropisomer, axis not shown) [Example 101, (S)-2-(tert-Butoxy)-2-((R)-1-(5-fluoro-2-methoxybenzoyl)-4-(8-fluoro-5-methylchroman-6-yl)-6-methylindolin-5-yl)acetic acid], the IC50 was 5 nM.

On to `COc1ccc(C(=O)N2CCc3c2cc(C)c([C@H](OC(C)(C)C)C(=O)O)c3-c2cc(F)c3c(c2C)CCCO3)cc1C` (atropisomer, axis not shown) [Example 102, (S)-2-(tert-Butoxy)-2-((R)-4-(8-fluoro-5-methylchroman-6-yl)-1-(4-methoxy-3-methylbenzoyl)-6-methylindolin-5-yl)acetic acid], for which the IC50 came to 2 nM.

`Cc1cc2c(c(-c3cc(F)c4c(c3C)CCCO4)c1[C@H](OC(C)(C)C)C(=O)O)CCN2C(=O)c1cc(Cl)ccn1` (atropisomer, axis not shown) [Example 103, (S)-2-(tert-Butoxy)-2-((R)-1-(4-chloropicolinoyl)-4-(8-fluoro-5-methylchroman-6-yl)-6-methylindolin-5-yl)acetic acid] gave an IC50 of 16 nM.

The compound `CC(=O)Nc1ccc(C(=O)N2CCc3c2cc(C)c([C@H](OC(C)(C)C)C(=O)O)c3-c2cc(F)c3c(c2C)CCCO3)cc1` (atropisomer, axis not shown) [Example 104, (S)-2-((R)-1-(4-Acetamidobenzoyl)-4-(8-fluoro-5-methylchroman-6-yl)-6-methylindolin-5-yl)-2-(tert-butoxy)acetic acid] came in with a concentration for half-maximal inhibition (IC50) of 323 nM.

Turning to `COc1ccc(OC)c(C(=O)N2CCc3c2cc(C)c([C@H](OC(C)(C)C)C(=O)O)c3-c2cc(F)c3c(c2C)CCCO3)c1` (atropisomer, axis not shown) [Example 106, (S)-2-(tert-Butoxy)-2-((R)-1-(2,5-dimethoxybenzoyl)-4-(8-fluoro-5-methylchroman-6-yl)-6-methylindolin-5-yl)acetic acid], half-maximal inhibition (IC50) was put at 11 nM.

`COc1ccc(C)c(C(=O)N2CCc3c2cc(C)c([C@H](OC(C)(C)C)C(=O)O)c3-c2cc(F)c3c(c2C)CCCO3)c1` (atropisomer, axis not shown) [Example 107, (S)-2-(tert-Butoxy)-2-((R)-4-(8-fluoro-5-methylchroman-6-yl)-1-(5-methoxy-2-methylbenzoyl)-6-methylindolin-5-yl)acetic acid] had an IC50 of 5 nM.

In turn, `Cc1ccc(C(=O)N2CCc3c2cc(C)c([C@H](OC(C)(C)C)C(=O)O)c3-c2cc(F)c3c(c2C)CCCO3)cc1` (atropisomer, axis not shown) [Example 108, (S)-2-(tert-Butoxy)-2-((R)-4-(8-fluoro-5-methylchroman-6-yl)-6-methyl-1-(4-methylbenzoyl)indolin-5-yl)acetic acid] came in with a 50% inhibitory concentration (IC50) of 4 nM.

`Cc1cc2c(c(-c3cc(F)c4c(c3C)CCCO4)c1[C@H](OC(C)(C)C)C(=O)O)CCN2C(=O)c1cc(F)ccc1F` (atropisomer, axis not shown) [Example 109, (S)-2-(tert-Butoxy)-2-((R)-1-(2,5-difluorobenzoyl)-4-(8-fluoro-5-methylchroman-6-yl)-6-methylindolin-5-yl)acetic acid] showed an IC50 of 11 nM.

For the compound `Cc1cc(C(=O)N2CCc3c2cc(C)c([C@H](OC(C)(C)C)C(=O)O)c3-c2cc(F)c3c(c2C)CCCO3)ccc1Cl` (atropisomer, axis not shown) [Example 110, (S)-2-(tert-Butoxy)-2-((R)-1-(4-chloro-3-methylbenzoyl)-4-(8-fluoro-5-methylchroman-6-yl)-6-methylindolin-5-yl)acetic acid], the concentration for half-maximal inhibition (IC50) turned out to be 4 nM.

`Cc1cc2c(c(-c3cc(F)c4c(c3C)CCCO4)c1[C@H](OC(C)(C)C)C(=O)O)CCN2C(=O)c1c(F)cccc1F` (atropisomer, axis not shown) [Example 111, (S)-2-(tert-Butoxy)-2-((R)-1-(2,6-difluorobenzoyl)-4-(8-fluoro-5-methylchroman-6-yl)-6-methylindolin-5-yl)acetic acid] returned an IC50 of 43 nM.

With `Cc1cc2c(c(-c3cc(F)c4c(c3C)CCCO4)c1[C@H](OC(C)(C)C)C(=O)O)CCN2C(=O)c1ccc(C(=O)N2CCCCC2)cc1` (atropisomer, axis not shown) [Example 112, (S)-2-(tert-Butoxy)-2-((R)-4-(8-fluoro-5-methylchroman-6-yl)-6-methyl-1-(4-(piperidine-1-carbonyl)benzoyl)indolin-5-yl)acetic acid], half-maximal inhibition (IC50) was put at 295 nM.

For `COc1c(C(=O)N2CCc3c2cc(C)c([C@H](OC(C)(C)C)C(=O)O)c3-c2cc(F)c3c(c2C)CCCO3)ccc(F)c1F` (atropisomer, axis not shown) [Example 113, (S)-2-(tert-Butoxy)-2-((R)-1-(3,4-difluoro-2-methoxybenzoyl)-4-(8-fluoro-5-methylchroman-6-yl)-6-methylindolin-5-yl)acetic acid], it took 2 nM to reach half-maximal inhibition (IC50).

Consider `Cc1cc2c(c(-c3cc(F)c4c(c3C)CCCO4)c1[C@H](OC(C)(C)C)C(=O)O)CCN2C(=O)c1cccc2c1OCO2` (atropisomer, axis not shown) [Example 114, (S)-2-((R)-1-(Benzo[d][1,3]dioxole-4-carbonyl)-4-(8-fluoro-5-methylchroman-6-yl)-6-methylindolin-5-yl)-2-(tert-butoxy)acetic acid], for which the midpoint of inhibition, the IC50, lay at 5 nM.

Compound `Cc1ccc(C(=O)N2CCc3c2cc(C)c([C@H](OC(C)(C)C)C(=O)O)c3-c2cc(F)c3c(c2C)CCCO3)cc1Cl` (atropisomer, axis not shown) [Example 115, (S)-2-(tert-Butoxy)-2-((R)-1-(3-chloro-4-methylbenzoyl)-4-(8-fluoro-5-methylchroman-6-yl)-6-methylindolin-5-yl)acetic acid] yielded an IC50 of 5 nM.

The compound `Cc1ccc(C(=O)N2CCc3c2cc(C)c([C@H](OC(C)(C)C)C(=O)O)c3-c2cc(F)c3c(c2C)CCCO3)cn1` (atropisomer, axis not shown) [Example 116, (S)-2-(tert-Butoxy)-2-((R)-4-(8-fluoro-5-methylchroman-6-yl)-6-methyl-1-(6-methylnicotinoyl)indolin-5-yl)acetic acid] displayed an IC50 of 11 nM.

With `COc1cc(Cl)cc(C(=O)N2CCc3c2cc(C)c([C@H](OC(C)(C)C)C(=O)O)c3-c2cc(F)c3c(c2C)CCCO3)c1` (atropisomer, axis not shown) [Example 117], it took 16 nM to reach half-maximal inhibition (IC50).

As to `Cc1cccc(C(=O)N2CCc3c2cc(C)c([C@H](OC(C)(C)C)C(=O)O)c3-c2cc(F)c3c(c2C)CCCO3)c1F` (atropisomer, axis not shown) [Example 118, (S)-2-(tert-Butoxy)-2-((R)-1-(2-fluoro-3-methylbenzoyl)-4-(8-fluoro-5-methylchroman-6-yl)-6-methylindolin-5-yl)acetic acid], the IC50 was 5 nM.

Consider `Cc1cc2c(c(-c3cc(F)c4c(c3C)CCCO4)c1[C@H](OC(C)(C)C)C(=O)O)CCN2C(=O)c1ccc(F)c(Cl)c1` (atropisomer, axis not shown) [Example 119, (S)-2-(tert-Butoxy)-2-((R)-1-(3-chloro-4-fluorobenzoyl)-4-(8-fluoro-5-methylchroman-6-yl)-6-methylindolin-5-yl)acetic acid], for which the IC50 stood at 3 nM. Against the preceding compound, the IC50 is about 1.7-fold lower.

`Cc1cc2c(c(-c3cc(F)c4c(c3C)CCCO4)c1[C@H](OC(C)(C)C)C(=O)O)CCN2C(=O)C(C)(C)C` (atropisomer, axis not shown) [Example 120, (S)-2-(tert-Butoxy)-2-((R)-4-(8-fluoro-5-methylchroman-6-yl)-6-methyl-1-pivaloylindolin-5-yl)acetic acid]: half-maximal inhibition (IC50) required 91 nM. This IC50 lies about 30-fold higher than the previous one.

In turn, `Cc1cccc(C(=O)N2CCc3c2cc(C)c([C@H](OC(C)(C)C)C(=O)O)c3-c2cc(F)c3c(c2C)CCCO3)c1C` (atropisomer, axis not shown) [Example 121, (S)-2-(tert-Butoxy)-2-((R)-1-(2,3-dimethylbenzoyl)-4-(8-fluoro-5-methylchroman-6-yl)-6-methylindolin-5-yl)acetic acid] registered an IC50 of 7 nM.
